The source of these data is patent US8580802B2, “Pyrrolo[2,3-D]pyrimidines as inhibitors of Janus kinases” (Vertex Pharmaceuticals Incorporated, priority 2005, dated 2013).

A word on the Ki: it is the equilibrium dissociation constant of an inhibitor or competing ligand from its target.

The target of assay [1] is JAK2 (Homo sapiens, UniProt O60674). The assay can be described thus: JAK2 Inhibition Assay. Format: biochemical. Conditions: JAK-2 enzyme, 15 μM poly(Glu)4Tyr, 12 μM ATP. The procedure: (§1) Compounds were screened for their ability to inhibit JAK3 using the assay shown below. Reactions were carried out in a kinase buffer containing 100 mM HEPES (pH 7.4), 1 mM DTT, 10 mM MgCl2, 25 mM NaCl, and 0.01% BSA. Substrate concentrations in the assay were 5 μM ATP (200 uCi/μmole ATP) and 1 μM poly(Glu)4Tyr. Reactions were carried out 25° C. and 1 nM JAK3.
Chain of JAK2 (O60674 whole entry): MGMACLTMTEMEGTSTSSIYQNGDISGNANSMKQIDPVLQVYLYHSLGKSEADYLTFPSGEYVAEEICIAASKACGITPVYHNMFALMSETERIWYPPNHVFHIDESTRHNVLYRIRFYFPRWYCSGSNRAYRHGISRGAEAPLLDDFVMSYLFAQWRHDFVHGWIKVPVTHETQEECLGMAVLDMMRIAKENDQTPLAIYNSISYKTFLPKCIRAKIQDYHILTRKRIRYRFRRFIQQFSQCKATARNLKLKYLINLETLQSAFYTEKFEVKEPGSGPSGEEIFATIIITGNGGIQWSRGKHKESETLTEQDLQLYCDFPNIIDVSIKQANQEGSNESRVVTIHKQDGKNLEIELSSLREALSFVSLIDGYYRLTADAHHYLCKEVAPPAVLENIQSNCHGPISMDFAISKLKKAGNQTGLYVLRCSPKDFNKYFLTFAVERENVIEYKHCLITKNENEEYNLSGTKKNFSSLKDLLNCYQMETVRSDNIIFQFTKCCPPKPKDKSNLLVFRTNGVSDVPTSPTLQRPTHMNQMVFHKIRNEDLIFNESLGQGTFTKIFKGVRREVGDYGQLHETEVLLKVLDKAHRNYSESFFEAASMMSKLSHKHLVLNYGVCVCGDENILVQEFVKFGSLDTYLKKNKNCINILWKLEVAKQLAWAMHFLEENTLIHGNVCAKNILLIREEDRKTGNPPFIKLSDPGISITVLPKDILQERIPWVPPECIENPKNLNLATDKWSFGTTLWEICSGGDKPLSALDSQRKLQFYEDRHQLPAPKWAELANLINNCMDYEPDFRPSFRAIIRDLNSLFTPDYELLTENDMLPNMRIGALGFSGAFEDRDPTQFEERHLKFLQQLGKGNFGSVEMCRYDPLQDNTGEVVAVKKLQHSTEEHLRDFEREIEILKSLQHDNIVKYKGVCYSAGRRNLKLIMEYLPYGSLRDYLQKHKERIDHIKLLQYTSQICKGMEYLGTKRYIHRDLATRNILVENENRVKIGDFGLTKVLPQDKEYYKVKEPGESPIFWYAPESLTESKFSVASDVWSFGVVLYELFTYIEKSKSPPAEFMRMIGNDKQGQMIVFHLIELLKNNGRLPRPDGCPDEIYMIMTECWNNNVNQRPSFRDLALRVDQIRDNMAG
(§2) To each well of a 96 well polycarbonate plate was added 1.5 μl of a candidate JAK3 inhibitor along with 50 μl of kinase buffer containing 2 μM poly(Glu)4Tyr and 10 μM ATP. This was then mixed and 50 μl of kinase buffer containing 2 nM JAK3 enzyme was added to start the reaction. After 20 minutes at room temperature (25° C.), the reaction was stopped with 50 μl of 20% trichloroacetic acid (TCA) that also contained 0.4 mM ATP. The entire contents of each well were then transferred to a 96 well glass fiber filter plate using a TomTek Cell Harvester. After washing, 60 μl of scintillation fluid was added and ^33P incorporation detected on a Perkin Elmer TopCount.
The assays were as described above in Example 36 except that JAK-2 enzyme was used, the final poly(Glu)4Tyr concentration was 15 μM, and final ATP concentration was 12 μM.

Assay [2] has as its target T1, JAK3 (Homo sapiens, UniProt P52333).
T1 sequence (P52333 1-1124): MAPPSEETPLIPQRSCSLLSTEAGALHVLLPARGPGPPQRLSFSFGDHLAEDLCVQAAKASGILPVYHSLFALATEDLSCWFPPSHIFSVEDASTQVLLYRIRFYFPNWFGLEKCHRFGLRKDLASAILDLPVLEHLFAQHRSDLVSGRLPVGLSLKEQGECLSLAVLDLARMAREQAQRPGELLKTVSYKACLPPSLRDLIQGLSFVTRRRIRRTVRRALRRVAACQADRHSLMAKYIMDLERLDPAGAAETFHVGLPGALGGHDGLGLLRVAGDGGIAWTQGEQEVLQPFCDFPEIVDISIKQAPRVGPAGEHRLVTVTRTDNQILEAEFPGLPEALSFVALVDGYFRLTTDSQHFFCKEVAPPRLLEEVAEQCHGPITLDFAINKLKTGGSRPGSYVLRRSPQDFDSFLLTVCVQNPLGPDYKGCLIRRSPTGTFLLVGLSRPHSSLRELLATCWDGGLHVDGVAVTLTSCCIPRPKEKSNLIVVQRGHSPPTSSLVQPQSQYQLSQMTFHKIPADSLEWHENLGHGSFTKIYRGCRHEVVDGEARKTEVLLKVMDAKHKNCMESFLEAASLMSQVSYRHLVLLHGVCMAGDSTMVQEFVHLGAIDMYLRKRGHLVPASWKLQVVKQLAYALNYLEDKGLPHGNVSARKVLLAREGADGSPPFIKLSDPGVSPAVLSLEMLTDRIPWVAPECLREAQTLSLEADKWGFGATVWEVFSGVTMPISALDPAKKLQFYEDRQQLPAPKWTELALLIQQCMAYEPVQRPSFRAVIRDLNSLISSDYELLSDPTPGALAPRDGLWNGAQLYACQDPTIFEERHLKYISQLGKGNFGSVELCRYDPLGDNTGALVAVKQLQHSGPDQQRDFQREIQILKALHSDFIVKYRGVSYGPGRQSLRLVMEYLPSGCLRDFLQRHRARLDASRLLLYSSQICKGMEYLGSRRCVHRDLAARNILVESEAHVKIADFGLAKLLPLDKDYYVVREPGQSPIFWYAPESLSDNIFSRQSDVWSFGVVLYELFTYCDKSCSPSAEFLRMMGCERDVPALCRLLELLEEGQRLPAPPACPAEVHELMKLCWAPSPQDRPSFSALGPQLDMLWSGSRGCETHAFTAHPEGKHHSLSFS
The assay can be described thus: JAK3 Inhibition Assay. Format: biochemical. Conditions: 1 nM JAK3, 1 μM poly(Glu)4Tyr, 5 μM ATP, 25° C.; read-out: enzyme inhibition data (Ki) JAK3. The protocol:
as §1, §2

Where a name gives a salt, the structure may show the parent alone.

For `COC[C@H](Nc1nc(-c2c[nH]c3ncncc23)ncc1F)C(=O)NCC(F)(F)F` [Compound 42, (S)-2-(5-fluoro-2-(7H-pyrrolo[2,3-d]pyrimidin-5-yl)pyrimidin-4-ylamino)-N-(2,2,2-trifluoroethyl)-3-methoxypropanamide], the Ki was 500 to 5000 nM in assay [1] and less than 500 nM in assay [2].

In the case of `C[C@@H](Nc1nc(-c2c[nH]c3ncncc23)ncc1F)c1ccc(F)cc1` [Compound 58], the inhibition constant (Ki) in assay [1] and in assay [2] was less than 500 nM in each case.

On to `O=C(NCC(F)(F)F)[C@H](CO)Nc1ccnc(-c2c[nH]c3ncncc23)n1` [Compound 51], for which the Ki in assay [1] and in assay [2] was greater than 5000 nM each time.

For `C1=C(c2cccc(-c3c[nH]c4ncncc34)n2)CCNC1` [Compound 29, 6-(7H-Pyrrolo[2,3-d]pyrimidin-5-yl)-1′,2′,3′,6′-tetrahydro-[2,4′]bipyridinyl hydrochloride], the Ki in assay [1] and in assay [2] was 500 to 5000 nM in each case.

Regarding `O=C(NCC(F)(F)F)[C@@H]1C[C@@H](F)CN1c1nc(-c2c[nH]c3ncncc23)ncc1F` [Compound 53], the Ki in assay [1] is greater than 5000 nM; in assay [2], 500 to 5000 nM.

Turning to `O=C(NCC(F)(F)F)C1(Nc2ccnc(-c3c[nH]c4ncncc34)n2)CCCC1` [Compound 98], the inhibitory constant (Ki) in assay [1] and in assay [2] was less than 500 nM in each case.

Take `CC(C)(Nc1nc(-c2c[nH]c3ncncc23)ncc1F)C(=O)NCCF` [Compound 106]: the Ki in assay [1] and in assay [2] was less than 500 nM each time.

Take `CC(C)C(C(=O)NCC(F)(F)F)N(C)c1nc(-c2c[nH]c3ncncc23)ncc1F` (centres unmarked) [Compound 66]: the inhibition constant (Ki) in assay [1] and in assay [2] was less than 500 nM throughout.

`CC(C)[C@](C)(Nc1nc(-c2c[nH]c3ncncc23)ncc1F)C(=O)NCC(F)(F)F` [Compound 75]: the Ki is 500 to 5000 nM in assay [1] and less than 500 nM in assay [2].

For `O=C(CCn1ccc2cnc(-c3c[nH]c4ncncc34)nc21)NCC(F)(F)F` [Compound 111], the inhibitory constant (Ki) in assay [1] and in assay [2] was less than 500 nM each time.

For `COC[C@H](Nc1ccnc(-c2c[nH]c3ncncc23)n1)C(=O)NCC(F)(F)F` [Compound 48, (S)-2-(2-(7H-pyrrolo[2,3-d]pyrimidin-5-yl)pyrimidin-4-ylamino)-N-(2,2,2-trifluoroethyl)-3-methoxypropanamide], the Ki in assay [1] is greater than 5000 nM; in assay [2], 500 to 5000 nM.

Turning to `CN(c1nc(-c2c[nH]c3ncncc23)ncc1F)C(C(=O)NCC(F)(F)F)c1ccccc1` (centres unmarked) [Compound 100], the Ki in assay [1] is 500 to 5000 nM; in assay [2] it was less than 500 nM.

In the case of `O=C(NCC(F)(F)F)C1(Nc2ncnc(-c3c[nH]c4ncncc34)n2)CCCC1` [Compound 92], the Ki in assay [1] and in assay [2] was less than 500 nM in each case.

For `CN(c1nc(-c2c[nH]c3ncncc23)ncc1F)C1(C(=O)NCC(F)(F)F)CC1` [Compound 99], the Ki in assay [1] was 500 to 5000 nM; in assay [2], less than 500 nM.

In the case of `CC[C@@H](C(=O)NCC(F)(F)F)n1ccc2cnc(-c3c[nH]c4ncncc34)nc21` [Compound 112], the Ki in assay [1] and in assay [2] was less than 500 nM each time.

As to `C[C@H](Nc1cc(C(=O)N2CCC[C@H]2CO)nc(-c2c[nH]c3ncncc23)n1)C(=O)NCC(F)(F)F` [Compound 8], the results for the inhibition constant (Ki) in assay [1] and in assay [2] were 500 to 5000 nM and less than 500 nM, respectively.

With `CC(C)(Nc1nc(-c2c[nH]c3ncncc23)ncc1F)C(=O)NCC(F)F` [Compound 107], the Ki in assay [1] and in assay [2] was less than 500 nM throughout.

`COC[C@H]1CCCN1C(=O)c1cc(N[C@@H](C)C(=O)NCC(F)(F)F)nc(-c2c[nH]c3ncncc23)n1` [Compound 11]: the inhibition constant Ki was greater than 5000 nM in assay [1] and 500 to 5000 nM in assay [2].

`C[C@H](Nc1cc(-c2ccccc2)nc(-c2c[nH]c3ncncc23)n1)C(=O)NCC(F)(F)F` [Compound 18, (S)-2-(6-phenyl-2-(7H-pyrrolo[2,3-d]pyrimidin-5-yl)pyrimidin-4-ylamino)-N-(2,2,2-trifluoroethyl)propanamide]: the Ki is 500 to 5000 nM in assay [1] and less than 500 nM in assay [2].

As for `C[C@H](Nc1nc(-c2c[nH]c3ncncc23)ncc1F)c1ccc(F)cc1` [Compound 59], the Ki in assay [1] and in assay [2] was less than 500 nM throughout.

For the compound `O=C(NCC(F)(F)F)C1CN(c2nc(-c3c[nH]c4ncncc34)ncc2F)C1` [Compound 95], the inhibitory constant (Ki) in assay [1] and in assay [2] was greater than 5000 nM each time.

Consider `CC[C@@](C)(Nc1ccnc(-c2c[nH]c3ncncc23)n1)C(=O)NCC(F)(F)F` [Compound 80], for which the Ki in assay [1] and in assay [2] was less than 500 nM in each case.

In the case of `CC(C)(C(=O)NCC(F)(F)F)n1cnc2cnc(-c3c[nH]c4ncncc34)nc21` [Compound 108, 2-(2-(7H-pyrrolo[2,3-d]pyrimidin-5-yl)-9H-purin-9-yl)-N-(2,2,2-trifluoroethyl)-2-methylpropanamide], the Ki in assay [1] and in assay [2] was less than 500 nM throughout.

For the compound `CC[C@@H](Nc1ncnc(-c2c[nH]c3ncncc23)n1)C(=O)NCC(F)(F)F` [Compound 91], the inhibition constant Ki in assay [1] and in assay [2] was less than 500 nM in each case.

On to `C[C@H](c1ccccc1)N(C)c1ccnc(-c2c[nH]c3ncncc23)n1` [Compound 85], for which the inhibitory constant (Ki) in assay [1] and in assay [2] was less than 500 nM in each case.

As to `C[C@H](Nc1nc(-c2c[nH]c3ncncc23)nc(N2CCCC2)n1)C(=O)NCC(F)(F)F` [Compound 33, (S)-2-(4-(pyrrolidin-1-yl)-6-(7H-pyrrolo[2,3-d]pyrimidin-5-yl)-1,3,5-triazin-2-ylamino)-N-(2,2,2-trifluoroethyl)propanamide], the Ki in assay [1] and in assay [2] was greater than 5000 nM in each case.

As for `C[C@H](Nc1nc(-c2c[nH]c3ncncc23)ncc1F)C(=O)NCC(F)(F)F` [Compound 6, (S)-2-(5-fluoro-2-(7H-pyrrolo[2,3-d]pyrimidin-5-yl)pyrimidin-4-ylamino)-N-(2,2,2-trifluoroethyl)propanamide], the Ki in assay [1] and in assay [2] was less than 500 nM in each case.

In the case of `CC(C)[C@@H](Nc1ccnc(-c2c[nH]c3ncncc23)n1)C(=O)NCC(F)(F)F` [Compound 68], the inhibitory constant (Ki) in assay [1] and in assay [2] was less than 500 nM throughout.

For the compound `Fc1cnc(-c2c[nH]c3ncncc23)nc1N1CCCC1` [Compound 24, 5-(5-fluoro-4-(pyrrolidin-1-yl)pyrimidin-2-yl)-7H-pyrrolo[2,3-d]pyrimidine], the Ki in assay [1] and in assay [2] was 500 to 5000 nM each time.

For `COCCNC(=O)c1cc(N[C@@H](C)C(=O)NCC(F)(F)F)nc(-c2c[nH]c3ncncc23)n1` [Compound 14], the inhibitory constant (Ki) in assay [1] was 500 to 5000 nM; in assay [2] it was less than 500 nM.

As for `O=C(NCC(F)(F)F)[C@@H]1C[C@H](F)CN1c1nc(-c2c[nH]c3ncncc23)ncc1F` [Compound 52], the Ki in assay [1] and in assay [2] was 500 to 5000 nM in each case.

Turning to `O=C(NCC(F)(F)F)C(Nc1nc(-c2c[nH]c3ncncc23)ncc1F)c1cccnc1` (centres unmarked) [Compound 67], the inhibition constant Ki in assay [1] and in assay [2] was 500 to 5000 nM each time.

Regarding `CC(C)[C@H](C(=O)NCC(F)(F)F)N(C)c1ccnc(-c2c[nH]c3ncncc23)n1` [Compound 73], the Ki in assay [1] and in assay [2] was less than 500 nM in each case.

As to `C[C@@H](Nc1nc(-c2c[nH]c3ncncc23)ncc1F)C(=O)N(C)CC(F)(F)F` [Compound 104], the inhibition constant (Ki) in assay [1] was 500 to 5000 nM; in assay [2], less than 500 nM.
